Experimental findings from patent US8809340B2, “Crystalline form” (Novartis AG, priority 2012, dated 2014) are described below.

Where a name gives a salt, the structure may show the parent alone.

Data set [1] can be described thus: Solid-form transformation upon drying. The data set is classed as physicochemical. The conditions noted are these: transient solvate form in suspension during the crystallization of Form A.
A short description of data set [2]: Relative thermodynamic stability of polymorphic forms. Type of data set: physicochemical. The conditions noted are these: polymorph comparison, succinate salt.

Consider `CCCN(CCC)C(=O)COC(=O)CCNS(=O)(=O)c1cccc(C(=O)N2CCC3(CC2)CN/C(=N\C(=O)c2nc(Cl)c(N)nc2N)N3)c1` [Form B, 3-(3-{2-[(E)-3,5-Diamino-6-chloro-pyrazine-2-carbonylimino]-1,3,8-triaza-spiro[4.5]decane-8-carbonyl}-benzenesulfonylamino)-propionic acid dipropylcarbamoylmethyl ester succinate salt], for which the “form stability / transformation upon drying” value in data set [1] is reported as “transforms into Form A upon drying”.
As to `CCCN(CCC)C(=O)COC(=O)CCNS(=O)(=O)c1cccc(C(=O)N2CCC3(CC2)CN/C(=N\C(=O)c2nc(Cl)c(N)nc2N)N3)c1` [Form C, 3-(3-{2-[(E)-3,5-Diamino-6-chloro-pyrazine-2-carbonylimino]-1,3,8-triaza-spiro[4.5]decane-8-carbonyl}-benzenesulfonylamino)-propionic acid dipropylcarbamoylmethyl ester succinate salt], the “thermodynamic stability relative to Form A” value in data set [2] is recorded as “thermodynamically more stable than Form A”.
